Columns and labels:
mice [Crj:CD-1 (ICR)] = test: Anti-diabetic activity: blood glucose level after oral corn starch loading in mice; format: in vivo; settings: mice unfed 20 hours; oral DOGGDN 10 mg, 5 mg and 1 mg with 2,000 mg corn starch per kg; 0.5-4.0 hours; t-test; FIG. 1
Method: Commercially available healthy mice [Crj:CD-1 (ICR) available from Japan Charles River Co., Ltd.
Blood was collected from the orbital veniplex of each mouse just before administration and after the lapse of 0.5 hour, 1.0 hour, 1.5 hours, 2.0 hours, 3.0 hours and 4.0 hours after administration, and the concentration of glucose in the blood [blood glucose level (mg/dl)] was measured to examine the inhibitory effect against rise of blood glucose level after intake of corn starch, i.e. the anti-diabetic action. The inhibitory effect against rise of blood sugar level was judged by the t-test. The glucose concentration in the blood was determined using a blood glucose level analyzer “[sequence]” [mfd. by Bayer Sankyo Co., Ltd.].

[1] = target: T1, HSA (α-amylase derived from human salivary gland) (Homo sapiens, UniProt P0DUB6); test: Inhibition of human α-amylase activity in vitro (blue starch, Neo·Amylase Test), HSA; format: biochemical; settings: final concentration of inhibitor reducing 50% of the activity of the HSA solution; 37° C., 30 minutes
T1 construct: purchased International Reagents Corp., Japan Calibzyme·AMY
T1 sequence (P0DUB6 16-511): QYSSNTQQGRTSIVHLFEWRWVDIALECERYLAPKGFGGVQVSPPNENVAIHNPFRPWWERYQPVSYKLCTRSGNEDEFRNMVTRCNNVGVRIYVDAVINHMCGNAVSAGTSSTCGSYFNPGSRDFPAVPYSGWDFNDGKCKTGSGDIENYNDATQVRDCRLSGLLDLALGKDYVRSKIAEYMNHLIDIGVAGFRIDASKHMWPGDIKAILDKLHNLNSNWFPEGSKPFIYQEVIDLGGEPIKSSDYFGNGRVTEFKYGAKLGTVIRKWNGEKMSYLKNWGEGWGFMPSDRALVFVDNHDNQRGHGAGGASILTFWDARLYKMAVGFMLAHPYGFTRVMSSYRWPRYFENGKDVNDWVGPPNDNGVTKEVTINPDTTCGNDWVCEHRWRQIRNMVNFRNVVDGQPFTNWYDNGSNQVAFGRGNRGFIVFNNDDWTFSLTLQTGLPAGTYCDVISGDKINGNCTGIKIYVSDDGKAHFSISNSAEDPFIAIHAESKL
Method: (§1) Purified water was added to commercial HPA and HSA to dissolve them to a concentration of 350 IU/1 to prepare an α-amylase solution. “Calibzyme·AMY” (produced by International Reagents Corp., Japan) was used as this commercial human α-amylase. The α-amylase activity was determined with reference to the calibration curves of a commercial α-amylase determining reagent “Neo·Amylase Test, Daiichi” (produced by Daiichi Pure Chemicals Co., Ltd., Japan).
(§2) To 100 μl of the HPA or HSA solution were added 3.0 ml of purified water, 1.0 ml of inhibitor solution and one tablet of blue starch of “Neo·Amylase Test, Daiichi” (produced by Daiichi Pure Chemicals Co., Ltd., Japan). After stirring by a mixer for about 10 seconds, the mixture was warmed at 37° C. for 30 minutes and then further stirred by adding 1.0 ml of a 0.5 N sodium hydroxide solution to cease the reaction, after which the solution was centrifuged (1,500 G, 5 min.) and absorbance of the supernatant at 620 nm was measured. As a blank, purified water was used instead of the inhibitor solution.

[2] = target: T2, HPA (α-amylase derived from human pancreatic juice) (Homo sapiens, UniProt P04746); test: Inhibition of human α-amylase activity in vitro (blue starch, Neo·Amylase Test), HPA; format: biochemical; settings: final concentration of inhibitor reducing 50% of the activity of the HPA solution; 37° C., 30 minutes
T2 construct: purchased International Reagents Corp., Japan Calibzyme·AMY
T2 sequence (P04746 16-511): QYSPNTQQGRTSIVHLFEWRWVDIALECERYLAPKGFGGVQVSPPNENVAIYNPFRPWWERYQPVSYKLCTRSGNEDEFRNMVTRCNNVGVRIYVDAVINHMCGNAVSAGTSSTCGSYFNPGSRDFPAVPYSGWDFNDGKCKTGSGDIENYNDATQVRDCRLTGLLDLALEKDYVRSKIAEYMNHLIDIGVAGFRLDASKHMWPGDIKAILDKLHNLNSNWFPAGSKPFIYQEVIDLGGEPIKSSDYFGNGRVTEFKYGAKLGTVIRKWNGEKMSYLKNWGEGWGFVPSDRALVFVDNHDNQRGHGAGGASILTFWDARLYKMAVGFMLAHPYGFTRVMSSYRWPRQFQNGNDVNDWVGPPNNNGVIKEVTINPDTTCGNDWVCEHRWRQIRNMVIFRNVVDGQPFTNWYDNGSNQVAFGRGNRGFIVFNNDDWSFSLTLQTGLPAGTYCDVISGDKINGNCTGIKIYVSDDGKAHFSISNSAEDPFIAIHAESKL
Method: as §1, §2

IC50 [1] [mM]	IC50 [2] [mM]	SMILES	rise of blood glucose level as compared with the control group (mice [Crj:CD-1 (ICR)])
0.03		CC1OC(OC2C(CO)OC(OC3C(CO)NCC(O)C3O)C(O)C2O)C(O)C(O)C1O [DOGGDN, O-(6-deoxy)-α-D-glucopyranosyl-(1→4)-O-(α-D-glucopyranosyl)-(1→4)-deoxynojirimycin]	reduced significantly
0.03	0.05	CC1OC(OC2C(CO)OC(OC3C(CO)NCC(O)C3O)C(O)C2O)C(O)C(O)C1OC1OC(CO)C(O)C(O)C1O [GDOGGDN, O-(α-D-glucopyranosyl)-(1→4)-O-(6-deoxy-α-D-glucopyranosyl)-(1→4)-O-(α-D-glucopyranosyl)-(1→4)-deoxynojirimycin]	
0.26	0.26	OCC1NCC(O)C(O)C1OC1OC(CO)C(OC2OC(CO)C(O)C(O)C2O)C(O)C1O (stereo not drawn) [GGDN, Maltosyl-deoxynojirimycin, reference compound]	

From US6939858B2, “Malto-oligosaccharide derivatives and use thereof” (Kikkoman Corporation, priority 2000, dated 2005)
